Laboratory results from ChEMBL document CHEMBL1201862, “PubChem BioAssay data set” (2004).
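The compound was tested at five concentrations on cells cultured in 96-well plates, with a 48-hour exposure period. GI50 is the concentration that inhibits growth by half.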 Activity calls are given as the source filed them. No stated cut-off is given here; in the data, active = GI50 up to about 1.1 µM and inactive = higher.

Tests used:
Assay in all cases: DTP human tumour cell line panel, 48 h
[1] = test system: T47D
[2] = test system: EKVX
[3] = test system: COLO 205
[4] = test system: SK-OV-3
[5] = test system: SN12C
[6] = test system: UACC-62
[7] = test system: SK-MEL-5
[8] = test system: A549
[9] = test system: NCI/ADR-RES
[10] = test system: UACC-257
[11] = test system: SF-268
[12] = test system: SNB-19
[13] = test system: HCT-15
[14] = test system: MDA-MB-435
[15] = test system: SF-539
[16] = test system: OVCAR-3
[17] = test system: CCRF-CEM
[18] = test system: OVCAR-4
[19] = test system: CAKI-1

Structure (SMILES)	GI50 [1]	GI50 [2]	GI50 [3]	GI50 [4]	GI50 [5]	GI50 [6]	GI50 [7]	GI50 [8]	GI50 [9]	GI50 [10]	GI50 [11]	GI50 [12]	GI50 [13] [µM]	GI50 [14]	GI50 [15]	GI50 [16]	GI50 [17]	GI50 [18]	GI50 [19]
Cc1cn(CC2=NCC(C)N2)c(=O)[nH]c1=O (stereo unspecified)	> 100 µM (inactive)	> 100 µM (inactive)	> 100 µM (inactive)	> 100 µM (inactive)	> 100 µM (inactive)	> 100 µM (inactive)	> 100 µM (inactive)	> 100 µM (inactive)	> 100 µM (inactive)	> 100 µM (inactive)	> 100 µM (inactive)	> 100 µM (inactive)	> 100	–	–	–	–	–	–
O=C1C=CC(=O)c2c(NCC3CC3)ccc(NCC3CC3)c21	6.34 µM (inactive)	29 µM (inactive)	19.7 µM (inactive)	–	23.2 µM (inactive)	18.3 µM (inactive)	22.6 µM (inactive)	47.8 µM (inactive)	64.1 µM (inactive)	29.3 µM (inactive)	–	> 100 µM (inactive)	13.3	19.7 µM (inactive)	25.5 µM (inactive)	26.7 µM (inactive)	–	–	–
COc1ccc(/C(=N/Nc2ccccc2)C(c2ccc(OC)cc2)C2OC(=O)c3ccccc32)cc1 (stereo unspecified)	–	37.8 µM (inactive)	> 100 µM (inactive)	–	> 100 µM (inactive)	52.7 µM (inactive)	33.2 µM (inactive)	99.3 µM (inactive)	–	76 µM (inactive)	23.3 µM (inactive)	> 100 µM (inactive)	> 100	–	> 100 µM (inactive)	–	79.8 µM (inactive)	> 100 µM (inactive)	41.9 µM (inactive)
O=C(O)CNC(=O)C(CSC(=O)OCC1c2ccccc2-c2ccccc21)NC(=O)CCC(NC(=O)OCC1c2ccccc2-c2ccccc21)C(=O)O (stereo unspecified)	–	17.8 µM (inactive)	16.5 µM (inactive)	> 100 µM (inactive)	16.5 µM (inactive)	–	63.4 µM (inactive)	14.3 µM (inactive)	17.5 µM (inactive)	> 100 µM (inactive)	17.5 µM (inactive)	> 100 µM (inactive)	20	18.9 µM (inactive)	16.3 µM (inactive)	> 100 µM (inactive)	20.2 µM (inactive)	15 µM (inactive)	4.57 µM (inactive)
CCOC(=O)C(NC(=O)c1ccc(/N=N/N(C)C)cc1)C(C)C (stereo unspecified)	–	> 100 µM (inactive)	> 100 µM (inactive)	> 100 µM (inactive)	> 100 µM (inactive)	> 100 µM (inactive)	> 100 µM (inactive)	> 100 µM (inactive)	–	> 100 µM (inactive)	> 100 µM (inactive)	> 100 µM (inactive)	> 100	–	> 100 µM (inactive)	> 100 µM (inactive)	> 100 µM (inactive)	> 100 µM (inactive)	> 100 µM (inactive)
O=C1Nc2c(Cl)cc(Cl)cc2/C1=N/N=C/c1ccccc1O	–	11.5 µM (inactive)	16.4 µM (inactive)	30.6 µM (inactive)	18.3 µM (inactive)	17.2 µM (inactive)	20.4 µM (inactive)	29.2 µM (inactive)	19.5 µM (inactive)	23.5 µM (inactive)	–	61.8 µM (inactive)	17.8	21.7 µM (inactive)	20.6 µM (inactive)	16.3 µM (inactive)	21.5 µM (inactive)	27.6 µM (inactive)	19.4 µM (inactive)
C/C(=N\NC(N)=O)C(CN1CCOCC1)C(c1ccccc1)c1c(O)c2ccccc2oc1=O (stereo unspecified)	–	> 100 µM (inactive)	> 100 µM (inactive)	> 100 µM (inactive)	–	> 100 µM (inactive)	> 100 µM (inactive)	> 100 µM (inactive)	> 100 µM (inactive)	> 100 µM (inactive)	> 100 µM (inactive)	> 100 µM (inactive)	> 100	> 100 µM (inactive)	> 100 µM (inactive)	> 100 µM (inactive)	> 100 µM (inactive)	> 100 µM (inactive)	> 100 µM (inactive)
CN(C)c1ccc(C=c2c3cc(O)ccc3n3c2cc(-c2ccccc2)[n+]3C)cc1	–	1.96 µM (inactive)	0.452 µM (active)	3.08 µM (inactive)	0.33 µM (active)	1.36 µM (inactive)	0.78 µM (active)	3.73 µM (inactive)	36.1 µM (inactive)	1.08 µM (active)	0.446 µM (active)	0.369 µM (active)	18	0.964 µM (active)	–	0.746 µM (active)	0.656 µM (active)	3.28 µM (inactive)	8.63 µM (inactive)
CCOC(=O)c1cc(OC(=O)CC)c2c(OC)ccc(OC)c2c1	–	35.8 µM (inactive)	> 100 µM (inactive)	21.9 µM (inactive)	78.2 µM (inactive)	28.8 µM (inactive)	> 100 µM (inactive)	> 100 µM (inactive)	–	–	–	89.3 µM (inactive)	25.9	–	47.2 µM (inactive)	–	–	52.4 µM (inactive)	46.2 µM (inactive)
CCN(CC)c1nnc(CCCCCCCCc2nnc(N(CC)CC)o2)o1	–	> 100 µM (inactive)	> 100 µM (inactive)	> 100 µM (inactive)	> 100 µM (inactive)	–	> 100 µM (inactive)	> 100 µM (inactive)	> 100 µM (inactive)	> 100 µM (inactive)	> 100 µM (inactive)	> 100 µM (inactive)	> 100	> 100 µM (inactive)	> 100 µM (inactive)	> 100 µM (inactive)	> 100 µM (inactive)	> 100 µM (inactive)	> 100 µM (inactive)
CCCCCCCCCCCCCP(=O)(O)NCC(N)=O	–	> 100 µM (inactive)	> 100 µM (inactive)	> 100 µM (inactive)	52.7 µM (inactive)	52.4 µM (inactive)	61.1 µM (inactive)	> 100 µM (inactive)	–	59.4 µM (inactive)	48.4 µM (inactive)	45.6 µM (inactive)	39.9	–	55.7 µM (inactive)	39 µM (inactive)	52.8 µM (inactive)	28.7 µM (inactive)	–
C(=C\c1ccccc1)/Cn1nc(-c2ccccc2)nc1-c1cnccn1	> 100 µM (inactive)	> 100 µM (inactive)	> 100 µM (inactive)	66.7 µM (inactive)	> 100 µM (inactive)	> 100 µM (inactive)	29.5 µM (inactive)	> 100 µM (inactive)	–	> 100 µM (inactive)	> 100 µM (inactive)	> 100 µM (inactive)	> 100	> 100 µM (inactive)	> 100 µM (inactive)	> 100 µM (inactive)	> 100 µM (inactive)	68.9 µM (inactive)	–
NC1=NS(=O)(=O)Nc2nc(-c3cccs3)[nH]c21	–	–	> 100 µM (inactive)	> 100 µM (inactive)	> 100 µM (inactive)	> 100 µM (inactive)	> 100 µM (inactive)	> 100 µM (inactive)	–	–	> 100 µM (inactive)	> 100 µM (inactive)	> 100	–	> 100 µM (inactive)	> 100 µM (inactive)	> 100 µM (inactive)	> 100 µM (inactive)	> 100 µM (inactive)
O=C1NC(Nc2ccccc2)=NC(C(F)(F)F)(C(F)(F)F)N1	36.4 µM (inactive)	38.4 µM (inactive)	33.4 µM (inactive)	64 µM (inactive)	36.6 µM (inactive)	50.4 µM (inactive)	25.1 µM (inactive)	40.9 µM (inactive)	71.1 µM (inactive)	59.7 µM (inactive)	39.8 µM (inactive)	–	51.1	43 µM (inactive)	74.5 µM (inactive)	37.9 µM (inactive)	48.6 µM (inactive)	39.6 µM (inactive)	–
COc1cc2nc(-c3ccc4ccccc4c3)nc(O)c2cc1OC	> 100 µM (inactive)	> 100 µM (inactive)	> 100 µM (inactive)	> 100 µM (inactive)	> 100 µM (inactive)	99.3 µM (inactive)	> 100 µM (inactive)	> 100 µM (inactive)	69.5 µM (inactive)	> 100 µM (inactive)	19.1 µM (inactive)	23.8 µM (inactive)	> 100	–	–	> 100 µM (inactive)	> 100 µM (inactive)	42.9 µM (inactive)	> 100 µM (inactive)
CN(c1cn(C2CC[C@@H](CO)O2)c(=O)[nH]c1=O)C1CCCCC1 (stereo partly specified)	> 100 µM (inactive)	–	> 100 µM (inactive)	> 100 µM (inactive)	> 100 µM (inactive)	> 100 µM (inactive)	> 100 µM (inactive)	> 100 µM (inactive)	> 100 µM (inactive)	–	> 100 µM (inactive)	> 100 µM (inactive)	> 100	> 100 µM (inactive)	> 100 µM (inactive)	> 100 µM (inactive)	> 100 µM (inactive)	> 100 µM (inactive)	–
CC(=O)NC(C)(C)C1CCC(C)=C(c2ccccc2)C1 (stereo unspecified)	> 100 µM (inactive)	> 100 µM (inactive)	> 100 µM (inactive)	> 100 µM (inactive)	> 100 µM (inactive)	> 100 µM (inactive)	> 100 µM (inactive)	> 100 µM (inactive)	–	> 100 µM (inactive)	> 100 µM (inactive)	> 100 µM (inactive)	74	> 100 µM (inactive)	> 100 µM (inactive)	> 100 µM (inactive)	96.8 µM (inactive)	> 100 µM (inactive)	–
O=C1N(Cl)C(=O)C(c2ccc(Cl)cc2)(c2ccc(Cl)cc2)N1Cl	–	> 100 µM (inactive)	41.8 µM (inactive)	> 100 µM (inactive)	96.8 µM (inactive)	–	> 100 µM (inactive)	58.6 µM (inactive)	–	–	> 100 µM (inactive)	> 100 µM (inactive)	91.8	–	> 100 µM (inactive)	> 100 µM (inactive)	22.6 µM (inactive)	> 100 µM (inactive)	> 100 µM (inactive)
